row,Compound,melting point
1,Nc1ccc(N2C(=O)c3ccccc3C2=O)c(Cl)c1,204 to 206 °C
2,O=C(O)c1csc(I)c1,136 to 138 °C
3,CS(=O)(=O)c1ccc(Oc2ccc(N)cc2)cc1,152 to 154 °C
4,O=C(O)/C=C/c1cc(Cl)c2c(c1)OCO2,259 to 261 °C
5,N#CCN1CCCC2CCCCC21 (stereo not given),42 to 44 °C
6,Nc1ccc(F)cc1-n1cccc1,84 to 86 °C
7,COc1ccc(-c2nnc(N)[nH]2)c(OC)c1,214 to 216 °C
8,Fc1ccc(-c2nnc3cc(Cl)ncn23)c(F)c1,170 to 172 °C
9,CC(=O)OCC(N)=S,75 to 77 °C
10,COc1cc(CCl)cc(Br)c1OC,60 to 62 °C
11,Nc1nc2ccc(S(=O)(=O)N3CCCC3)cc2s1,225 to 227 °C
12,CC1CCCCC12NC(=O)N(CC(=O)O)C2=O (stereo not given),156 to 158 °C
13,CCCc1cnc(N)s1,43 to 45 °C
14,CCC(=O)c1c(C)nn(CCS(C)(=O)=O)c1C,154 to 156 °C
15,CC(C)(C)NS(=O)(=O)c1cc(C(=O)O)ccc1Cl,212 to 214 °C
16,Cc1ccc(S(=O)(=O)Nc2ccc(Cl)cc2)cc1N,104 to 106 °C
17,Sc1nnc(-c2ccc[nH]2)o1,205 to 207 °C
18,O=C1CCNc2ccc(F)cc2N1,147 to 149 °C
19,Cc1n[nH]c(C)c1CCO,122 to 124 °C
20,Nc1ccc(S(=O)(=O)NC2CN3CCC2CC3)cc1 (stereo not given),168 to 170 °C
21,Cn1nnnc1SCC(=O)Nc1ccc(C(=O)O)cc1,190 to 192 °C
22,NS(=O)(=O)c1cc(Br)ccc1Br,199 to 201 °C

row,Compound,melting point
1,Nc1cc(F)c(N2CCCC2)c(F)c1,94 to 96 °C
2,Cc1cc(Cn2cc(Br)cn2)oc1C(=O)O,122 to 124 °C
3,N#Cc1ccnc(-n2ccnc2)c1,148 to 150 °C
4,Oc1cccc(-c2nnc3n2CCCCC3)c1,244 to 246 °C
5,Cc1cc(C=O)c(C)n1C1CC1,71 to 75 °C
6,O=C1NC(=O)N(c2ccc3c(c2)OCO3)C1=O,195 to 197 °C
7,Cc1sc(-n2c(C)ccc2C)c(C(=O)O)c1C,171 to 173 °C
8,COc1ccc(S(=O)(=O)Cl)cc1C1(C)NC(=O)NC1=O (stereo not given),214 to 216 °C
9,O=C(NO)c1cccs1,124 to 126 °C
10,Cc1n[nH]c(C(=O)O)c1Br,271 to 273 °C
11,Nc1ccc(N2CCNC2=O)cc1,171 to 173 °C
12,O=C(O)C(F)=C1CCCC1,83 to 85 °C
13,CN1N=C(C(N)=O)CCC1=O,169 to 171 °C
14,O=C(NCc1cccnc1)OCC(F)(F)F,45 to 47 °C
15,CCCc1cc(=O)[nH]c(CCC)n1,69 to 71 °C
16,CC(Cl)C(=O)N1N=C(c2ccc(Cl)cc2)CC1c1ccco1 (stereo not given),141 to 143 °C
17,Nc1cncnc1N1CCCC1,156 to 158 °C
18,Cc1ccc(N)c(C(=O)N(C)C)c1,98 to 100 °C
19,N#CCC(=O)c1c[nH]c2cc(F)ccc12,265 to 267 °C
20,Oc1ccc(OC2CCCCC2)cc1,63 to 65 °C
21,CCC1NC(=O)NC1=O (stereo not given),115 to 119 °C
22,c1ccc2c(-c3nc4ccccc4[nH]3)cccc2c1,264 to 266 °C

row,Compound,melting point
1,O=C(CCl)Nc1cc(C(F)(F)F)ccc1Cl,71 to 73 °C
2,CCOC(OCC)c1nnc[nH]1,59 to 61 °C
3,Cc1nn(C)c2[nH]nc(N)c12,135 to 137 °C
4,Cc1ccc(S(=O)(=O)N2CCOCC2)cc1NC(=O)CCl,76 to 78 °C
5,NC(=O)c1cc(Br)c(N)c(Br)c1,182 to 184 °C
6,O=C(Nc1ccccn1)C1CCNCC1,113 to 115 °C
7,COC(=O)c1ccc2[nH]cc(C3CCNCC3)c2c1,169 to 171 °C
8,CN(C)c1ccc(-c2nc3ccccc3s2)cc1,171 to 173 °C
9,CNC(=S)NCCN1CCOCC1,103 to 105 °C
10,NNC(=S)NC1CCCC1,76 to 78 °C
11,COc1ccc(S(N)(=O)=O)cc1Br,139 to 141 °C
12,COc1cc(C#N)cc(Cl)c1O,141 to 143 °C
13,c1ccc2oc(-c3ccncc3)cc2c1,73 to 75 °C
14,NOC1CCCCO1 (stereo not given),34 to 37 °C
15,CCc1sc(N)nc1-c1ccc(OC)cc1,112 to 114 °C
16,CSc1ccc(-c2nc(=N)s[nH]2)cc1,189 to 191 °C
17,CC(C)C(=O)N1CCCC(C(=O)O)C1 (stereo not given),131 to 133 °C
18,NC(Cc1cccs1)=NO,79 to 82 °C
19,CN1C(=O)CCc2cc(Br)ccc21,79 to 81 °C
20,Nc1cc(Br)ccc1I,49 to 51 °C
21,Cn1cc(S(=O)(=O)NCC(=O)O)cn1,201 to 203 °C
22,O=C(O)CN1CCCCC1=O,169 to 171 °C

row,Compound,melting point
1,Cc1cc(C(=O)O)c2c(C)nn(C(C)(C)C)c2n1,189 to 191 °C
2,O=Cc1cc(O)c(O)c(Cl)c1,234 to 236 °C
3,O=[N+]([O-])c1cccc(-c2cn[nH]c2)c1,154 to 156 °C
4,CC(C)(C)NS(=O)(=O)c1ccc(F)c(N)c1,99 to 101 °C
5,Nc1cc(-c2cccc(C(F)(F)F)c2)no1,89 to 91 °C
6,O=S(=O)(Cl)Cc1cc(-c2ccc(F)cc2)no1,108 to 110 °C
7,OCCNc1ccc(Br)cc1,80 to 82 °C
8,Nc1ccc(NC(=O)CCN2C(=O)CNC2=O)cc1,234 to 236 °C
9,ClCc1cn(-c2ccc(Cl)c(Cl)c2)nn1,138 to 140 °C
10,NC1CCN(c2ccc(Cl)c(F)c2)C1=O (stereo not given),69 to 71 °C
11,COc1nc(C)cc(Cl)n1,59 to 61 °C
12,N#CCC(=O)Nc1ccc(S(N)(=O)=O)cc1,215 to 217 °C
13,Cc1sc2nc(S)[nH]c(=O)c2c1C,328 to 330 °C
14,CC(C)(C)OC(=O)N1CCc2nc(N)sc2C1,226 to 228 °C
15,NS(=O)(=O)c1cc([N+](=O)[O-])cs1,165 to 167 °C
16,Cc1cccc2nc(C(F)(F)F)[nH]c(=O)c12,118 to 120 °C
17,O=C(c1ccc2c(c1)CCO2)c1cc(Cl)ccc1Cl,81 to 83 °C
18,Nc1nnc(-c2ccccc2Cl)[nH]1,218 to 220 °C
19,CN(C)c1ccc(Cn2nccc2N)cc1,60 to 62 °C

# The next lines start with the values.
row,melting point,Compound
1,212 to 213 °C,Cn1c(C(=O)O)cc2ccccc21
2,216 to 218 °C,O=C(O)CN1c2cccc3cccc(c23)S1(=O)=O
3,184 to 186 °C,O=c1[nH]c(-c2ccccc2)no1
4,128 to 130 °C,O=CC(C=O)SCc1ccccc1
5,247 to 249 °C,O=C(O)Cn1c(=O)[nH]c2ccccc21
6,216 to 218 °C,O=C(O)C1(c2c(Cl)cccc2Cl)CC1
7,113 to 115 °C,CCN(CC)C(=O)Nc1ccc(C(C)=O)cc1
8,88 to 90 °C,NCCN1C(=O)Cc2ccccc21
9,67 to 69 °C,CC(C)C(Oc1ccccc1C#N)C(=O)O (stereo not given)
10,180 to 182 °C,COc1ccc(C(=O)O)cc1S(=O)(=O)N(C)Cc1ccccc1
11,81 to 83 °C,Cc1cc(C)n(-c2ccccc2N)n1
12,103 to 105 °C,COCCOc1cn(-c2ccccc2)nc1C(=O)O
13,88 to 90 °C,CCNCC(=O)Nc1ccc(OC)cc1
14,134 to 136 °C,O=C(O)CCC(=O)N1CCSc2ccccc21
15,104 to 106 °C,CC(C)(C)OC(=O)NCC#Cc1ccc(OCc2ccccc2)cc1
16,173 to 175 °C,Cc1ncc(CO)n1-c1ccccc1
17,254 to 256 °C,NC(=O)c1ncn2c(C(=O)O)cc(-c3ccccc3)nc12
18,240 to 242 °C,O=C(O)CCc1csc2nc(C3CC3)cn12
19,255 to 257 °C,O=C(O)c1cn2cccnc2n1
20,72 to 74 °C,COc1cccc(C(=O)c2cccnc2)c1

row,melting point,Compound
1,56 to 58 °C,COc1ccc(C=O)cc1Cl
2,84 to 86 °C,CNC(=O)Cc1ccc(N)cc1
3,208 to 210 °C,COc1cccc(/C=C/C(=O)O)c1OC(F)F
4,139 to 141 °C,O=C(O)CS(=O)(=O)c1cccc(Br)c1
5,115 to 117 °C,O=S(=O)(Cl)c1ccc(OCC(F)F)c2ccccc12
6,129 to 131 °C,O=C(O)C(F)(F)c1ccc([N+](=O)[O-])cc1
7,148 to 150 °C,N=c1[nH]cnn1-c1ccccc1
8,297 to 299 °C,O=C(O)c1cc(-c2ccccn2)nc2ccccc12
9,130 to 132 °C,CSc1nc(-c2ccccc2)c[nH]1
10,222 to 224 °C,CCCc1nc2ccccc2c(C(=O)O)c1CC
11,169 to 171 °C,CCC(=O)Nc1ccc(O)cc1
12,202 to 212 °C,O=C(O)c1cccc(CN2C(=O)c3ccccc3C2=O)c1
13,135 to 137 °C,CN(CC(=O)O)c1ccc(Cl)cn1
14,81 to 83 °C,Nc1ccccc1Cn1ccnc1
15,79 to 81 °C,CCOC(=O)Cc1nc2cc(Cl)ccc2s1
16,149 to 151 °C,COc1cccc(-n2ccnc2S)c1
17,120 to 122 °C,Nc1ccc(C(=O)N2CCCC2c2ccccc2)cc1 (stereo not given)
18,136 to 138 °C,O=C1c2ccccc2C(=O)N1CC1CN(Cc2ccccc2)CCO1 (stereo not given)
19,132 to 134 °C,CN1CCN(C(=O)C2CNc3ccccc3O2)CC1 (stereo not given)
20,133 to 135 °C,O=C(O)C1CCCN1C(=O)c1cncn1-c1ccccc1 (stereo not given)

row,melting point,Compound
1,224 to 226 °C,c1ccc(-c2nnco2)nc1
2,99 to 101 °C,CCc1ccccc1N1CC(C(=O)O)CC1=O (stereo not given)
3,73 to 75 °C,CCCOc1cccc(C(=O)O)c1
4,270 to 272 °C,O=C(O)c1cccc(Nc2ncccn2)c1
5,237 to 239 °C,Nc1nc2cc(-c3ccccc3)cc(Cl)c2o1
6,145 to 147 °C,NCc1ccc(C(=O)Nc2ccc(F)cc2)cc1
7,123 to 125 °C,O=C(O)C1CCCCC1C(=O)N1CCc2ccccc21 (stereo not given)
8,158 to 160 °C,CC(C)(C)OC(=O)Nc1ccc(C(=O)O)c(O)c1
9,179 to 181 °C,Nc1ncc2c(n1)CCN(Cc1ccccc1)C2
10,69 to 71 °C,Nc1cc(-c2ccccc2Cl)no1
11,157 to 159 °C,O=C(O)c1ccc(Cl)cc1I
12,289 to 291 °C,Cc1cc(C(=O)O)c2ccc(Br)cc2n1
13,38 to 40 °C,Cc1ccccc1C=NO
14,134 to 136 °C,COCCOc1ccc(C(=O)O)cn1
15,229 to 231 °C,O=C(O)CCNC(=O)c1ccc2[nH]nnc2c1
16,66 to 68 °C,CCOc1ccccc1OCCCC(=O)O
17,180 to 184 °C,Cc1ccc(-c2cc(C(=O)O)c3ccccc3n2)cc1
18,250 to 252 °C,O=C(O)c1cccc(S(=O)(=O)Nc2ccc(Cl)cc2)c1
19,60 to 62 °C,BrCCCOc1ccc2c(c1)OCO2
20,147 to 149 °C,Cn1c(NN)nnc1-c1ccccc1
